# Source: article PMC6968775, “Assessment of contribution of BCRP to intestinal absorption of various drugs using portal‐systemic blood concentration difference model in mice” (Pharmacology Research & Perspectives, 2020)
# Several values for one entry are separate records, joined by “and”; a condition that tells them apart may be missing. Equal entries are not always repeated.
# Legend:
# P‐gp [1] = conditions: Caco‐2 permeability study; unpublished data; ref Fujita et al, manuscript in preparation; cited from earlier work
# P‐gp [2] = conditions: in vivo (mice); calculated from F a F g in WT, Bcrp(−/−) and Mdr1a/1b(−/−) mice (Eq. 12)
# [3] = Pharmacokinetics after iv and oral administration, P‐S difference method, Bcrp(−/−) mice; type: in vivo
# Procedure: (§1) Male Mdr1a/1b(−/−) and Bcrp(−/−) mice, and WT mice of the same genetic background (FVB) were obtained from Taconic Farms (Germantown, NY, USA). […] Food and water were available ad libitum. All experiments were carried out in accordance with the principles and procedures outlined in the National Institutes of Health Guide for the Care and Use of Laboratory.
# (§2) All the mice were fasted overnight with free access to tap water. In the intravenous administration studies, model compounds were administered via the tail vein at doses of 1 mg/kg (n = 3). Following administration, blood samples were collected from the abdominal vein of the anesthetized mice at 0.083, 0.17, 0.5, 1, 2, 4, and 8 hours. […] Following administration, blood samples were taken from the portal and abdominal veins of the anesthetized mice at 0.083, 0.17, 0.5, 1, 2, 4, and 8 hours. The plasma samples were separated by centrifugation at 14 000g for 10 minutes at 4°C and stored at −30°C until analysis.
# (§3) After organic layer was evaporated at 60°C, the resultant residues were dissolved in a mobile phase. For the determination of topotecan and sulfasalazine, plasma samples were mixed with acetonitrile, centrifuged at 750 g for 10 minutes at 4°C, and the supernatants were collected. After the evaporation of the supernatants, the residues were dissolved in a mobile phase, and acidified with phosphoric acid for topotecan. All drugs were analyzed by HPLC system (Shimadzu LC‐10AS pump, Shimadzu SIL‐10A autosampler) equipped with a reverse‐phase column (COSMOSIL 5C18‐AR‐II, 3.5‐μm […], 4.6 × 150 mm).
# (§4) Elimination rate constant (k e) was determined by the least squares regression analysis of plasma concentration vs time curve. Elimination half‐life (t 1/2) was calculated using Eq.1:(1) t1/2=ln2/ke
# (§5) Area under plasma concentration‐time curve (AUC) and area under the first moment curve (AUMC) from time 0 to infinity were calculated by trapezoidal rule.
# (§6) Absorption rate constant (k a) after oral administration was calculated by the nonlinear least squares fitting with program MULTI.12
# (§7) BA was calculated by Eq.5:(7) BA=AUCoral/AUCiv×Doseiv/Doseoral×100 where AUCoral is AUC after oral administration. Doseiv and Doseoral are administered dose in the intravenous and oral administration study, respectively.
# (§8) Hepatic availability (F h) was calculated by Eq.6:(8) Fh=F/Fa×Fg
# BCRP [4] = conditions: Caco‐2 permeability study; ref (10); Kawahara et al, manuscript in revision; cited from earlier work
# [5] = Pharmacokinetics after iv and oral administration, P‐S difference method, Mdr1a/1b(−/−) mice; type: in vivo
# Procedure: as §1, §2, §3, §4, §5, §6, §7, §8
# [6] = Blood/plasma concentration ratio (R b) in fresh whole blood; type: in vitro ADME, FVB mice; conditions: fresh whole blood, FVB mouse whole blood, 37°C
# Procedure: Similarly, the model compounds were added to plasma, and reference blood samples were obtained according to the same procedure. These concentrations of drugs in each sample were analyzed using HPLC (C B and C P, respectively). R b value was calculated by dividing C B by C P.
# [7] = Pharmacokinetics after iv and oral administration, P‐S difference method, wild‐type mice; type: in vivo
# Procedure: as §1, §2, §3, §4, §5, §6, §7, §8
# BCRP [8] = test system: BCRP
# [9] = Bcrp(−/−) mice, p.o. (ciprofloxacin 1, nitrofurantoin 2, topotecan 1, sulfasalazine 5 mg/kg)
# [10] = Mdr1a/1b(−/−) mice, p.o. (ciprofloxacin 1, nitrofurantoin 2, topotecan 1, sulfasalazine 5 mg/kg)
# [11] = male, Mdr1a/1b(−/−) (FVB background), mouse, systemic plasma (abdominal vein), po
# [12] = wild‐type mice, p.o. (ciprofloxacin 1, nitrofurantoin 2, topotecan 1, sulfasalazine 5 mg/kg)
smiles,measurement,setting,value
"O=C1CN(/N=C/c2ccc([N+](=O)[O-])o2)C(=O)N1 [nitrofurantoin, Nitrofurantoin]",AQp‐gp in vitro (Caco‐2),P‐gp [1],0.09
same,R P‐gp (rate of P‐gp contribution),P‐gp [2],0.13
same,F h,[3]; [9],90.0%
same,k a,[3]; [9],6.9 h⁻¹ and 6.89 h⁻¹
same,BA,"[3]; Bcrp(−/−) mice, p.o. (ciprofloxacin 1, nitrofurantoin 2, topotecan 1, sulfasalazine 5 mg/kg) vs iv 1 mg/kg",69.4%
same,F a F g,"[3]; Bcrp(−/−) mice, p.o. (ciprofloxacin 1, nitrofurantoin 2, topotecan 1, sulfasalazine 5 mg/kg), P‐S difference method",77.1%
same,AUC 0→∞ (AUCpv),"[3]; Bcrp(−/−) mice, p.o. (ciprofloxacin 1, nitrofurantoin 2, topotecan 1, sulfasalazine 5 mg/kg), portal vein (pv) plasma",3.41 µM·h
same,AUC 0→∞ (AUCsys),"[3]; Bcrp(−/−) mice, p.o. (ciprofloxacin 1, nitrofurantoin 2, topotecan 1, sulfasalazine 5 mg/kg), systemic (sys) plasma",2.56 µM·h
same,"k a, bcrp","[3]; Table 5 summary, Bcrp(−/−) mice, oral administration",6.89
same,(F a F g)bcrp,"[3]; as fraction, Bcrp(−/−) mice, oral administration",0.77
same,half-life,"[3]; male, Bcrp(−/−) (FVB background), mouse, plasma, iv, 1 mg/kg, Bcrp(−/−) mice, iv 1 mg/kg",84.6 min
same,Tmax,"[3]; male, Bcrp(−/−) (FVB background), mouse, portal vein plasma, po",10.2 min
same,Tmax,"[3]; male, Bcrp(−/−) (FVB background), mouse, systemic plasma (abdominal vein), po",10.2 min
same,AUC(0-inf),"[3]; male, FVB Bcrp(−/−), mouse, plasma (systemic, abdominal vein), iv, 1 mg/kg, Bcrp(−/−) mice, iv 1 mg/kg, read-out: AUC 0→∞",1.84 µM·h
same,clearance,"[3]; male, FVB Bcrp(−/−), mouse, plasma (systemic, abdominal vein), Bcrp(−/−) mice, iv 1 mg/kg, read-out: CL tot (converted)",38 mL/min/kg
same,Vd,"[3]; male, FVB Bcrp(−/−), mouse, plasma (systemic, abdominal vein), Bcrp(−/−) mice, iv 1 mg/kg, read-out: Vdss",1.45 L/kg
same,AUC(0-inf),"[3]; male, FVB Bcrp(−/−), mouse, portal vein plasma, po, Bcrp(−/−) mice, p.o. (ciprofloxacin 1, nitrofurantoin 2, topotecan 1, sulfasalazine 5 mg/kg), portal vein (pv) plasma, read-out: AUC 0→∞ (AUCpv)",3.41 µM·h
same,half-life,"[3]; male, FVB Bcrp(−/−), mouse, systemic plasma (abdominal vein), po, Bcrp(−/−) mice, p.o. (ciprofloxacin 1, nitrofurantoin 2, topotecan 1, sulfasalazine 5 mg/kg), systemic (sys) plasma",75 min
same,AUC(0-inf),"[3]; male, FVB Bcrp(−/−), mouse, systemic plasma (abdominal vein), po, Bcrp(−/−) mice, p.o. (ciprofloxacin 1, nitrofurantoin 2, topotecan 1, sulfasalazine 5 mg/kg), systemic (sys) plasma, read-out: AUC 0→∞ (AUCsys)",2.56 µM·h
same,"AUC pv and AUC sys after oral administration, Bcrp(−/−) mice vs WT mice",[3]; oral administration,approximately 1.5 fold
same,AQbcrp in vitro (Caco‐2),BCRP [4],0.37
same,F h,[5]; [10],79.9%
same,k a,[5]; [10],7.2 h⁻¹ and 7.20 h⁻¹
same,BA,"[5]; Mdr1a/1b(−/−) mice, p.o. (ciprofloxacin 1, nitrofurantoin 2, topotecan 1, sulfasalazine 5 mg/kg) vs iv 1 mg/kg",60.0%
same,F a F g,"[5]; Mdr1a/1b(−/−) mice, p.o. (ciprofloxacin 1, nitrofurantoin 2, topotecan 1, sulfasalazine 5 mg/kg), P‐S difference method",75.2%
same,AUC 0→∞ (AUCpv),"[5]; Mdr1a/1b(−/−) mice, p.o. (ciprofloxacin 1, nitrofurantoin 2, topotecan 1, sulfasalazine 5 mg/kg), portal vein (pv) plasma",3.18 µM·h
same,AUC 0→∞ (AUCsys),"[5]; Mdr1a/1b(−/−) mice, p.o. (ciprofloxacin 1, nitrofurantoin 2, topotecan 1, sulfasalazine 5 mg/kg), systemic (sys) plasma",2.35 µM·h
same,"k a, P‐gp","[5]; Table 5 summary, Mdr1a/1b(−/−) mice, oral administration",7.20
same,(F a F g)P‐gp,"[5]; as fraction, Mdr1a/1b(−/−) mice, oral administration",0.75
same,clearance,"[5]; male, FVB Mdr1a/1b(−/−), mouse, plasma (systemic, abdominal vein), Mdr1a/1b(−/−) mice, iv 1 mg/kg, read-out: CL tot (converted)",35.8 mL/min/kg
same,Vd,"[5]; male, FVB Mdr1a/1b(−/−), mouse, plasma (systemic, abdominal vein), Mdr1a/1b(−/−) mice, iv 1 mg/kg, read-out: Vdss",1.36 L/kg
same,AUC(0-inf),"[5]; male, FVB Mdr1a/1b(−/−), mouse, portal vein plasma, po, Mdr1a/1b(−/−) mice, p.o. (ciprofloxacin 1, nitrofurantoin 2, topotecan 1, sulfasalazine 5 mg/kg), portal vein (pv) plasma, read-out: AUC 0→∞ (AUCpv)",3.18 µM·h
same,AUC(0-inf),"[5]; male, FVB Mdr1a/1b(−/−), mouse, systemic plasma (abdominal vein), po, Mdr1a/1b(−/−) mice, p.o. (ciprofloxacin 1, nitrofurantoin 2, topotecan 1, sulfasalazine 5 mg/kg), systemic (sys) plasma, read-out: AUC 0→∞ (AUCsys)",2.35 µM·h
same,AUC(0-inf),"[5]; male, Mdr1a/1b(−/−) (FVB background), mouse, plasma, iv, 1 mg/kg, Mdr1a/1b(−/−) mice, iv 1 mg/kg, read-out: AUC 0→∞",1.95 µM·h
same,half-life,"[5]; male, Mdr1a/1b(−/−) (FVB background), mouse, plasma, Mdr1a/1b(−/−) mice, iv 1 mg/kg",70.2 min
same,Tmax,"[5]; male, Mdr1a/1b(−/−) (FVB background), mouse, portal vein plasma, po",10.2 min
same,Tmax,[5]; [11],10.2 min
same,half-life,[5]; [11],73.2 min
same,"AUC pv and AUC sys after oral administration, Mdr1a/1b(−/−) mice vs WT mice",[5]; oral administration,approximately 1.5 fold
same,"blood plasma ratio at 15 min, 1 µg/mL",[6],1.18 ± 0.1
same,"k a, wt","[7]; Table 5 summary, WT mice, oral administration",5.80
same,(F a F g) wt,"[7]; as fraction, WT mice, oral administration",0.64
same,clearance,"[7]; male, FVB (wild-type), mouse, plasma (systemic, abdominal vein), wild‐type mice, iv 1 mg/kg, read-out: CL tot (converted)",38 mL/min/kg
same,Vd,"[7]; male, FVB (wild-type), mouse, plasma (systemic, abdominal vein), wild‐type mice, iv 1 mg/kg, read-out: Vdss",1.94 L/kg
same,half-life,"[7]; male, FVB (wild-type), mouse, plasma, iv, 1 mg/kg, wild‐type mice, iv 1 mg/kg",172 min
same,AUC(0-inf),"[7]; male, FVB (wild-type), mouse, plasma, iv, 1 mg/kg, wild‐type mice, iv 1 mg/kg, read-out: AUC 0→∞",1.84 µM·h
same,Tmax,"[7]; male, FVB (wild-type), mouse, portal vein plasma, po",10.2 min
same,AUC(0-inf),"[7]; male, FVB (wild-type), mouse, portal vein plasma, po, wild‐type mice, p.o. (ciprofloxacin 1, nitrofurantoin 2, topotecan 1, sulfasalazine 5 mg/kg), portal vein (pv) plasma, read-out: AUC 0→∞ (AUCpv)",2.54 µM·h
same,Tmax,"[7]; male, FVB (wild-type), mouse, systemic plasma (abdominal vein), po",10.2 min
same,half-life,"[7]; male, FVB (wild-type), mouse, systemic plasma (abdominal vein), po, wild‐type mice, p.o. (ciprofloxacin 1, nitrofurantoin 2, topotecan 1, sulfasalazine 5 mg/kg), systemic (sys) plasma",55.8 min
same,AUC(0-inf),"[7]; male, FVB (wild-type), mouse, systemic plasma (abdominal vein), po, wild‐type mice, p.o. (ciprofloxacin 1, nitrofurantoin 2, topotecan 1, sulfasalazine 5 mg/kg), systemic (sys) plasma, read-out: AUC 0→∞ (AUCsys)",1.83 µM·h
same,F h,[7]; [12],78.3%
same,k a,[7]; [12],5.8 h⁻¹ and 5.80 h⁻¹
same,BA,"[7]; wild‐type mice, p.o. (ciprofloxacin 1, nitrofurantoin 2, topotecan 1, sulfasalazine 5 mg/kg) vs iv 1 mg/kg",49.9%
same,F a F g,"[7]; wild‐type mice, p.o. (ciprofloxacin 1, nitrofurantoin 2, topotecan 1, sulfasalazine 5 mg/kg), P‐S difference method",63.7%
same,AUC 0→∞ (AUCpv),"[7]; wild‐type mice, p.o. (ciprofloxacin 1, nitrofurantoin 2, topotecan 1, sulfasalazine 5 mg/kg), portal vein (pv) plasma",2.55 µM·h
same,AUC 0→∞ (AUCsys),"[7]; wild‐type mice, p.o. (ciprofloxacin 1, nitrofurantoin 2, topotecan 1, sulfasalazine 5 mg/kg), systemic (sys) plasma",1.84 µM·h
same,AQ bcrp (in vivo),"BCRP [8]; calculated from k a in WT, Bcrp(−/−) and Mdr1a/1b(−/−) mice (Eq. 9)",0.13
same,R bcrp (rate of BCRP contribution),"BCRP [8]; in vivo (mice), calculated from F a F g in WT, Bcrp(−/−) and Mdr1a/1b(−/−) mice (Eq. 11)",0.15
